Measurements from paper PMC5034043 (The Journal of Biological Chemistry, 2016).
Read-outs that look alike come from different tables or passages of the source.

Tested on: synaptosomal proteome
Format: binding, mouse
Method: Synaptosomes were resuspended to 1 mg of protein/ml in HEPES buffer medium (in mM: 140 NaCl, 5 KCl, 5 NaHCO3, 1.2 NaH2PO4, 1 MgCl2, 10 glucose, and 10 HEPES (pH 7.4)). […] The samples were allowed to equilibrate for 5 min before being transferred to a parafilm-sealed 1-mm path length quartz cuvette. The sample was then irradiated for 20 min at a peak bandwidth of 350 nm (Rayonet RPR-3500 lamp) ∼6 cm from the light source. Non-irradiated samples were left in the dark at ambient temperature (22–25 °C) for 20 min. All remaining procedures were conducted with restricted light exposure.
To 750 μg of photolabeled or control synaptosome samples, 40 μl of 10% SDS and 2 μl of 5 mM DTT in water were added. Samples were then vortexed, heated for 10 min at 65 °C, and then briefly cooled. Final concentrations of 150 μM azide-biotin (Click Chemistry Tools), 2 mM tris(3-hydroxypropyltriazolylmethyl)amine (Sigma), 1 mM ascorbic acid (Sigma), and 1 mM CuSO4·5H2O (Sigma) were added to each sample and vortexed vigorously. The samples were left in the dark at ambient temperature (22–25 °C) for 1 h with mild agitation. Directly to each sample 4× volume chilled methanol, 1.5× chilled chloroform, and 3× chilled double distilled H2O were added. Samples were vortexed vigorously and centrifuged at 1,400 × g for 30 min at 4 °C. Both liquid layers were carefully removed, and the protein pellet was washed with 2 ml of 1:1 (v/v) chilled methanol/chloroform. Samples were centrifuged at 3,500 × g for 30 min at 4 °C. Protein pellets were briefly air-dried before further processing.
750 μg of biotin-conjugated protein sample was resuspended in 500 μl of 25 mM NH4HCO3 and 6 M urea in water. Next, 150 μl of 5% Triton X-100 in water, 50 μl of 10% SDS in water, and 1.5 μl of 0.5 M DTT were added. The samples were heated for 15 min at 65 °C. After briefly cooling, 14 μl of 0.5 M iodoacetamide in water was added, and the sample was left in the dark for 45 min. […] The supernatant was diluted to 4 ml with PBS, and 2 ml of PBS containing 100 μl of 50% streptavidin-agarose resin (Thermo Scientific) was added. Biotinylated proteins within the sample were captured over resin overnight at 4 °C with mild agitation. The resin was first washed with 6 ml of 1% SDS in PBS, and then 7 ml of 0.1 M urea in PBS followed by 10 ml of PBS. The resin underwent a final wash with 0.9 ml of 50 mM Tris-HCl and 1 mM CaCl2 in water (pH 8.0) and then resuspended in 200 μl of 50 mM Tris-HCl, 1 mM CaCl2 in water (pH 8.0), and 2 μg of porcine sequencing grade trypsin (Promega). Samples were digested overnight at 37 °C. Samples were then centrifuged at 2,000 × g for 4 min, and digest supernatant was decanted. Beads were washed in 100 μl of PBS centrifuged at 5,200 × g for 5 min, and the wash was combined with the digest supernatant. To the combined sample, trifluoroacetic acid (TFA) was added to 0.4% (v/v) or until pH <2. The sample was desalted with Oasis C18 10-mg columns (Waters) as described previously ([66]). The eluted sample was dried by speed vac and resuspended in 0.1 M HEPES buffer (pH 8.5). […] Appropriate corresponding TMTsixplex^TM-labeled samples were pooled and dried by speed vac. The combined samples were resuspended in 0.5% acetic acid in water and pH-corrected with acetic acid until pH was <2. 40 μg of protein was desalted with C18 stage tips prepared in-house and dried by speed vac.
Samples were resuspended in 10 mM KH2PO4 (pH 2.6), 30% acetonitrile (v/v) in water, and fractionated by off-line strong cation exchange chromatography prior to mass spectrometry (MS) analysis similar to as reported previously ([66]). The full synaptosome proteome control was prepared similarly without TMTsixplex^TM labeling.
All TMT samples were analyzed with three-stage mass spectrometry (MS3) TMTsixplex^TM quantification workflow as described previously ([34]).

[1] = protein A2AI17 Glutamate receptor ionotropic, NMDA 1 (Grin1)
[2] = protein P70429-2 Isoform 1 of Ena/VASP-like protein (Evl)
[3] = protein P97300-3 Isoform 3 of Neuroplastin (Nptn)
[4] = protein Q8BJU0-2 Isoform 2 of Small glutamine-rich tetratricopeptide repeat-containing protein alpha (Sgta)
[5] = protein Q9DBF1-2 Isoform 2 of Alpha-aminoadipic semialdehyde dehydrogenase (Aldh7a1)
[6] = protein Q9EPJ9-2 Isoform 2 of ADP-ribosylation factor GTPase-activating protein 1 (Arfgap1)
[7] = protein Q8CFX3 Protein Pcdh1 (Pcdh1)

In the case of C#CCOCc1ccc(C2(C(F)(F)F)N=N2)cc1O [AziPm-click (1), 2-((prop-2-yn-1-yloxy)methyl)-5-(3-(trifluoromethyl)-3H-diazirin-3-yl)phenol], the “TMT Ratio Mean 'UV/ No UV'” value (O35633-2 Slc32a1) was 20.27, the “TMT Ratio Mean 'UV/ No UV'” value (P60879-2 Snap25) was 23.67 and the “Log2( Mean 'UV/ No UV')” value [1] was 3.36. For the same compound, the “TMT Ratio Mean 'UV/ No UV'” value [1] was 10.28, the “TMT Ratio Mean 'UV/ No UV'” value (protein P23819-4 Isoform 4 of Glutamate receptor 2 (Gria2)) was 12.58 and the “TMT Ratio Mean 'UV/ No UV'” value [2] was 19.89. The “TMT Ratio Mean 'UV/ No UV'” value [3] was 12.71, the “TMT Ratio Mean 'UV/ No UV'” value [4] was 15.19 and the “TMT Ratio Mean 'UV/ No UV'” value [5] was 14.82. For the same compound, the “TMT Ratio Mean 'UV/ No UV'” value [6] was 10.88.
CC(C)c1cccc(C(C)C)c1O [propofol, 2,6-diisopropylphenol, reference compound] was tested, and the “Log2( Mean 'UV/ UV+propofol')” value (O35633-2 Slc32a1) was 1.24, the “% propofol protection” value (Q8BKX1-4 Baiap2) was 71% and the “Log2( Mean 'UV/ UV+propofol')” value (Q8BKX1-4 Baiap2) was 1.77. For the same compound, the “% propofol protection” value (Q8VDQ8-2 Sirt2) was 71%, the “Log2( Mean 'UV/ UV+propofol')” value (Q8VDQ8-2 Sirt2) was 1.61 and the “decrease in enrichment factor with propofol protection” value (five GABAA receptor subunits (α1,3 and β1–3), enrichment factor = mean (+)UV/(−)UV TMT ratio) was “at least 10”. The “% propofol protection” value [1] was 57%, the “Log2( Mean 'UV/ UV+propofol')” value [1] was 1.07 and the “% propofol protection” value [2] was 56%. For the same compound, the “Log2( Mean 'UV/ UV+propofol')” value [2] was 1.14, the “Log2( Mean 'UV/ UV+propofol')” value [3] was 1.17 and the “% propofol protection” value [4] was 56%. For the same compound, the “Log2( Mean 'UV/ UV+propofol')” value [4] was 1.02, the “% propofol protection” value [7] was 50% and the “Log2( Mean 'UV/ UV+propofol')” value [7] was 0.87. For the same compound, the “% propofol protection” value [5] was 52%, the “Log2( Mean 'UV/ UV+propofol')” value [5] was 0.94 and the “% propofol protection” value [6] was 56%. For the same compound, the “Log2( Mean 'UV/ UV+propofol')” value [6] was 1.06.
